From patent US10272053B2, “Nanoparticle targeted drug delivery to the lungs using extra-testicular sertoli cells” (UNIVERSITY OF SOUTH FLORIDA, priority 2008, dated 2019)

Assay: Quantification of curcumin in lungs of injected asthmatic mice (UV absorbance)
Format: in vivo, mouse
Settings: IV SCET
Experimental: […] Each lung was placed in a labeled container with 1 ml PBS. The lungs were then sonicated for 10 seconds by the Sonic Dismembrinator 60 (Fisher Scientific) to lyse the Sertoli cells and release the curcumin nanoparticles. The curcumin was then separated from the nanoparticles by adding 500 μl DMSO to each container. The suspension was then centrifuged at 1200 rpm for 10 minutes and the supernatant was collected. A UV spectrum was collected from each supernatant sample.
In addition to normal mice, some female C57BL/6 and BALB/c mice were sensitized by intraperitoneal injection (i.p.) of 10 μl ovalbumin (OVA) with alum as previously described to mimic acute allergic asthma (Weggman, M. Animal models of chronic experimental asthma—strategies for the identification of new therapeutic targets. Occup Med Toxicol. 3 (Suppl 1) (2008); Temelkovski J, Hogan S P, Shepherd D P, Foster P S, Kumar R K. An improved murinemodel of asthma: selective airway inflammation, epithelial lesions and increased methacholine responsiveness following chronic exposure to aerosolised allergen. Thorax. 10, 849-56 (1998)). The mice were challenged weekly for 3 weeks with an intranasal injection (i.n.) of 25 μl OVA (20 mg/ml). One hour after the last i.n. challenge, the treatment group (n=7) was injected via the tail vein with pre-loaded, pre-labeled SCET (8×10^6) that contained nanoparticles coupled with […] curcumin dose. Others asthmatic mice were not injected with SCET to serve as untreated controls (n=6). […]
Each lung was placed in a labeled container with 1 ml PBS. The lungs were then sonicated for 10 seconds by the Sonic Dismembrinator 60 (Fisher Scientific) to lyse the Sertoli cells and release the curcumin nanoparticles. The curcumn was then separated from the nanoparticles by adding 500 μl DMSO to each container. The suspension was then centrifuged at 1200 rpm for 10 minutes and the supernatant was collected. A UV spectrum was collected from each supernatant sample. Data was presented for absorbance assays of Sertoli cells, nanoparticles and curcumin from all samples from all mice, including a sample of the nanoparticle pre-loaded, pre-labeled SC injectable (8×10^6) were replicated and the mean values of SCs, nanoparticles and curcumin were expressed as a percentage of the mean value determined in the pre-loaded, pre-labeled Sertloli cell injectable (8×10^6)

COc1cc(/C=C/C(=O)CC(=O)/C=C/c2ccc(O)c(OC)c2)ccc1O [curcumin]
80%: percentage of injected curcumin load present in the lungs (15 minutes post-injection) | delivery of curcumin throughout the pulmonary tissue (time not stated) | percentage of total curcumin in the injected SCET found in the lungs (asthmatic mice, 25 hours following injection) | percentage of injected curcumin load present in the lungs (asthmatic mice, one hour post-injection)
